What was measured:
[1] = target: p53 R175H (Homo sapiens, UniProt P04637, R175H); details: cited from earlier work
[2] = target: T1, R175H-p53 with A124 (cysteine 124 to alanine) (Homo sapiens, UniProt P04637, C124A/R175H); test: PRIMA-1 treatment of Saos-2 cells expressing R175H-p53 with cysteine 124 changed to alanine; assay type: cell-based; details: 50 μM pre-heated PRIMA-1, 72 h, Saos-2 cells (FIG. 5)
T1 construct: expressed in transfected cells; host or cells: Saos-2 (p53null) human osteosarcoma cells
Procedure: (§1) FIG. 5 is a graph showing that PRIMA-1 acts through cysteine 124 in p53. p53null Saos-2 cells expressing wild type p53, or the indicated p53 mutants, were treated with 50 μM pre-heated PRIMA-1 (“+”, left bar) or the medium without PRIMA-1 (DMSO, “−”, right bar) for 72 h. The increase in cell number during 72 h of growth is shown. Standard deviations represent 4 independent samples (Wassman, et al., 2013).
Although the region around residue C124 is enriched for cancer rescue mutations, changes in position 124 have never been found, nor were they predicted by our SVM classifier, to reactivate p53 cancer mutants. Indeed, directed saturation mutagenesis of position 124 in the context of the R175H p53 cancer mutation explored all single amino acid changes at C124 and confirmed the absence of any genetic mutation rescue activity at this position. We could therefore test the computer predictions for a role of C124 in covalent drug binding in vivo by changing C124 into alanine to prevent the hypothetical thiol-mediated link with MQ.
(§2) The increase in cell number during 72 h of growth is shown. As expected, the p53 cancer mutant R175H was activated by PRIMA-1. Mutating cysteine 124 to alanine blocked PRIMA-1 induced cancer mutant reactivation.

[3] = target: T2, p53 cancer mutant R175H (Homo sapiens, UniProt P04637, R175H); test: p53 reactivation assay (cell killing / proliferation arrest) in Saos-2 cells expressing p53 cancer mutant R175H; assay type: cell-based; details: 50 μM pre-heated PRIMA-1, 72 h, Saos-2 cells (FIG. 5)
T2 construct: expressed in transfected cells; host or cells: Saos-2 (p53null) human osteosarcoma cells
Procedure: as §1, §2
The basis for our primary assay is that cancer cells cannot tolerate active p53, stop proliferation, and eventually die. Expression of functional p53 in p53null Saos-2 osteosarcoma cells blocks their proliferation; expression of p53 cancer mutants has no effect (Wassman et al., 2013) (FIG. 5). Importantly, compounds that reactivate p53 cancer mutants specifically block proliferation of Saos-2 cells expressing p53 cancer mutants, but have no effect on growth of p53null cells at the same concentration (FIG. 3). […]
(§3) Our primary screen is the p53 cancer mutant R175H, which is the single most prevalent human cancer mutation. Active compounds were re-evaluated using an independent cell line expressing a different p53 cancer mutant, G245S.

[4] = system: p53 cancer mutants; test: p53-dependent cell killing (or proliferation arrest) in Saos-2 cells expressing p53 cancer mutants; assay type: cell-based, human
Procedure: FIG. 3C is a graph of dose response curves for compounds 33BAZ and 27UDP using four different p53 cancer mutants: R175H, G245S, R248W, and R273H. Experimental conditions are as in FIG. 3A.
FIG. 3D is a panel of graphs of broad spectrum activity for four other compounds using four different p53 cancer mutants: R175H, G245S, R248W, and R273H. Experimental conditions are as in FIG. 3C, but a single dose was assayed: 27VFS (20 μM), 35LWZ (50 μM), 27WT9 (10 μM), and 26RQZ (10 μM).
Our previous p53 reactivation assays focused on p53-driven expression of the canonical p53 target genes p21 and PUMA (Wassman et al., 2013). However, there is significant evidence that neither p21 nor PUMA expression predict p53 anti-tumor activity (Hock & Vousden, 2012; Li et al., 2012; Valente et al., 2013). Indeed, our results comparing effects of PRIMA-1 and stictic acid support this view. […] We now use p21 and PUMA expression as an independent transcription assay for p53 cancer mutant reactivation, but not the primary selection criterion. We changed to p53-dependent cell killing (or proliferation arrest) as our main measure of efficacy because our long-term goal is anti-tumor drugs. […]
as §3

[5] = system: parental Saos-2 (p53^null) cells; test: Cell proliferation of parental Saos-2 (p53null) cells, CellTiter-Glo; assay type: cell-based; details: cultured 3 days, max. 200 μM, Zinc Leads Now compounds (FIG. 3A)
Procedure: FIG. 3A is a graph of reactivation activities of various compounds. Saos-2 cells expressing no p53 (p53^null), or expressing one of the cancer mutants p53-R175H or p53-G245S, were cultured for 3 days in the presence of different concentrations of compounds that had been selected from the Zinc Leads Now database, version of January, 2011, by the computational methods described below. The p53 reactivation compounds shown correspond to FIG. 1. Cell numbers were measured using the CellTiter-Glo® reagent. […] Data are presented as the standard error of the mean (n=3). Note that as of this writing eight compounds have been tested on the R175H mutant only (32CTM, 28NZ6, 27TGR, 27VFS, 35LWZ, 36EB5, 32LDE, and 32JCB).
FIG. 3B is a graph of reactivation activities of various compounds. Experimental conditions are as in FIG. 3A, but compounds were selected from the Chembridge Express Pick Library 2012 database, by the computational methods described below. The p53 reactivation compounds shown correspond to FIG. 2.
The basis for our primary assay is that cancer cells cannot tolerate active p53, stop proliferation, and eventually die. […]
as §3

[6] = system: p53-dependent reporter expression (p21 and PUMA promoter elements); test: p21 and PUMA expression / transcriptional reporter assay based on p21 and PUMA promoter elements; assay type: cell-based, human; details: comparison of stictic acid and PRIMA-1
Excerpt: Our previous p53 reactivation assays focused on p53-driven expression of the canonical p53 target genes p21 and PUMA (Wassman et al., 2013). However, there is significant evidence that neither p21 nor PUMA expression predict p53 anti-tumor activity (Hock & Vousden, 2012; Li et al., 2012; Valente et al., 2013). Indeed, our results comparing effects of PRIMA-1 and stictic acid support this view. […] We now use p21 and PUMA expression as an independent transcription assay for p53 cancer mutant reactivation, but not the primary selection criterion. We changed to p53-dependent cell killing (or proliferation arrest) as our main measure of efficacy because our long-term goal is anti-tumor drugs.
An independent test for p53 cancer mutant reactivation is the well-established transcriptional reporter assay based on p21 and PUMA promoter elements (Wassman, et al., 2013). As above, the magnitude of reactivated p53-dependent transcription is not considered relevant for a compound's potency in cancer cell killing.

In the case of `CC(=NNC(=S)N(C)C)c1ccccn1` [NSC319725], the “allele specificity of p53 mutant reactivation” value [1] is given as “R175H allele-specific”.
For `C/C(=N\NC(=S)N1CCC1)c1ccccn1` [NSC319726], the “allele specificity of p53 mutant reactivation” value [1] is given as “R175H allele-specific”.
In the case of `O=C1C2CCN(CC2)C1(CO)CO` [PRIMA-1], the “PRIMA-1 effects after introduction of A124 in R175H-p53” value [2] is reported as “completely eliminated”, the “effect on cells expressing the inactive R175H p53” value [3] is reported as “reactivation and induction of cell death” and the “p53-dependent killing/arresting of cells” value ([4]; comparison of PRIMA-1 and stictic acid) is reported as “considerably more potent”. For the same compound, the “highest compound concentration that did not significantly affect cell proliferation of the parental Saos-2 (p53null) cells” value [5] was 50 µM.
With `COc1cc(C)c2c(c1C=O)Oc1c(c(C)c(O)c3c1C(O)OC3=O)OC2=O` (centres unmarked) [stictic acid] the “p53 reactivation in biological assays” value ([4]; one of 45 screened NCI DTP compounds) was “proved to be a p53 reactivation compound” and the “restoring p21 and PUMA expression in p53 cancer mutants” value [6] was “significantly better than PRIMA-1”.
